Results on one compound are retold here after US9980979B2, “Compounds and methods for enhancing erythropoiesis” (NATIONAL YANG-MING UNIVERSITY, priority 2008, dated 2018).

Structures are written as SMILES.

Experiment [1] concerns erythropoietin (Epo). In words: Epo expression in kidney slices (RT-PCR). Format: cell-based, mouse. The following applies: 0.6-100 μg/ml, 16 hr, versus 0 μg/ml, FIG. 3. On the procedure: C57BL/6JNarl mice, 8-10 weeks of age, were purchased from the National Laboratory Animal Center (NLAC, Taiwan). The kidney slices of mice were prepared as previously described with modifications (Parrish et al., 1995, Obatomi et al., 1998 and De Kanter et al., 1999). Briefly, mice were sacrificed by cervical dislocation and the kidneys were excised and immediately kept in gassed (95% O2 and 5% CO2) ice-cold sterile Krebs-HEPES buffer (pH 7.4) containing 20 mM HEPES (USB), 128 mM sodium chloride (Sigma-Aldrich), 2.5 mM potassium chloride (Sigma-Aldrich), 2.7 mM calcium chloride (Sigma-Aldrich), 1 mM magnesium chloride (Sigma-Aldrich) and 16 mM D-glucose (Sigma-Aldrich). […]
Kidney slices were preincubated in a 24-well plate (Falcon) containing 1.0 ml/well of gassed (95% O2, 5% CO2) fresh media (DMEM/F12 (Gibco/Invitrogen) containing 15 mM HEPES (USB), 20 mM sodium bicarbonate (Sigma-Aldrich)) and 5% (v/v) FBS (Gibco) for 90˜120 min at 37° C. in a 95% O2: 5% CO2 atmosphere chamber. […] The reverse-transcribed cDNA samples were analyzed by polymerase chain reaction (PCR) using ABI GeneAmp™ system 2700 (Applied Biosystems) with primers targeting toward mouse β-actin (SEQ ID NOs: 1 and 2) and erythropoietin (Epo) (SEQ ID NOs: 3 and 4) (Table 1). Results were compared with control group (0 μg/ml) and expressed as relative index.

Experiment [2] in a line: comparison with 3,4′,5-trihydroxy-trans-stilbene (data not shown).
Experiment [3] relates to bone marrow cells. The experiment can be described thus: DAF-based hemoglobin colorimetry assay on cultured bone marrow cells from phenylhydrazine-induced anemic mice. The following applies: about 0.1 to about 20 μg/ml, 4 days, with 50 mU/ml EPO; **P<0.01 versus control (0 μg/ml); FIG. 1. Format: cell-based, C57BL/6JNarl mice. The procedure:
C57BL/6JNarl mice, 8-10 weeks of age, were purchased from the National Laboratory Animal Center (NLAC, Taiwan). Acute hemolytic anemia was induced by a single intraperitoneal (i.p.) injection of phenylhydrazine hydrochloride (Sigma-Aldrich) at a dose of 100 mg/kg in a phosphate buffered saline (PBS). Six days after the injection, bone marrow cells were isolated from mice and cultured according to the procedure described in Worthington et al., (1985) and Rosenthal et al. (1987) with minor modifications. […]
In the next day, different concentrations of compound A (0, 0.1, 0.5, 2.5, 12.5 and 20 μg/ml) were added to the cells, respectively, and incubated for 4 days. The relative levels of hemoglobin were determined using DAF-based hemoglobin colorimetry assay according to Kaiho (1985) and Worthington (1985) with minor modifications. […] The absorbance at 610 nm was measured by Victor 2 1420 Multilable Counter (Wallac, PerkinElmer). Results were expressed as relative index±S.E. (n=6). Statistical significance was evaluated by Student's t test (**P<0.01 versus control group (0 μg/ml)).

For the compound `OC[C@H]1O[C@@H](Oc2c(O)cc(O)cc2/C=C/c2ccc(O)cc2)[C@H](O)[C@@H](O)[C@@H]1O` [Compound A, 2,3,5,4′-tetrahydroxystilbene 2-O-β-D-glucopyranoside], in experiment [1], the “expression of Epo in kidney tissue (relative index)” value is recorded as “increased the expression of Epo in kidney tissue”. For the same compound, the “enhancing renal functions and improving anemia, compared with 3,4′,5-trihydroxy-trans-stilbene” value in experiment [2] (data not shown) is “superior to 3,4′,5-trihydroxy-trans-stilbene”. In addition, the “enhancing erythropoiesis and kidney functions, compared with 3,4′,5-trihydroxy-trans-stilbene” value in experiment [2] (no data shown) is “superior to 3,4′,5-trihydroxy-trans-stilbene”. For the same compound, in experiment [3], the “hemoglobin formation (relative index)” value was “significantly enhanced hemoglobin formation”.
